According to patent publication US9801960B2, “Probe for a biological specimen and labelling method and screening method using the probe” (CANON KABUSHIKI KAISHA, priority 2008, dated 2017):

How the values were obtained:
[1] = system: Zebrafish juveniles; assay: In vivo labelling of Zebrafish juveniles with probe for biological specimen; set-up: key to Staining property: +++: stained; −: no stained; key to Fluorescence sensitivity: +++: strongly observed; ++: moderately observed; +: weakly observed; −: no stained; settings: 1 hour; for Site(s) to be labelled: 10 ng/mL in water, stereoscopic microscope; for Fluorescence sensitivity / Staining property: 10 ng/mL; for Fluorescence sensitivity: fluorescence intensity visually evaluated; for Staining property: visually evaluated
Protocol: Five juveniles of Zebrafish were put into one well of a well plate together with rearing water. After rearing water had been discharged, 1 mL of distilled water was added to the well, and a solution of a staining compound (1) in DMSO was further added thereto so as to achieve a concentration of 10 ng/mL, followed by gentle stirring (pipetting). Further, Egg Water was prepared by dissolving artificial seawater SEALIFE (manufactured by Marinetech Co., Ltd.) in distilled water at a concentration of 60 mg/L. After the whole had been left to stand for 1 hour, distilled water in the well was discharged and replaced by 1 mL of fresh Egg Water. In addition, such an operation that Egg Water was discharged and replaced by 1 mL of fresh Egg Water was repeated twice. One of the juveniles was taken out from the well onto a dish, supplemented with 100 μL of a 3% methylcellulose aqueous solution to fix the movement of the juvenile, and photographed with a stereoscopic microscope (MZ10F: manufactured by Leica Microsystems K.K.).
The same operation as that in Example 1 was performed except that the staining compound (1) used in Example 1 was changed to any one of the staining compounds described in Table 1.
The same operation as that in Example 1 was performed except that the staining compound (1) used in Example 1 was changed to any one of indocyanine green (ICG) and fluorescein.
The staining property of each of the staining compounds of Labelled Examples 1 to 78 and Labelled Comparative Examples 1 and 2 was visually evaluated (+++: stained and −: no stained).
The fluorescence intensity of each of the staining compounds of Labelled Examples 1 to 78 and Labelled Comparative Examples 1 and 2 was visually evaluated (+++: strongly observed, ++: moderately observed, +: weakly observed, and −: no stained).

[2] = Excitation and fluorescence emission wavelength measurement; type: physicochemical; set-up: Stokes shift (λem − λex): unit not given here; settings: aqueous solution: 10 mg/mL solution in DMSO diluted 500-fold with purified water
Protocol: It should be noted that the excitation wavelength and the fluorescence emission wavelength of the staining compound were determined by measuring an aqueous solution, which had been obtained by diluting 500-fold a 10 mg/mL solution of the staining compound in DMSO with purified water, with a fluorescence spectrophotometer FL 4500 manufactured by Hitachi High-Technologies Corporation.

[3] = Storage stability of staining compound solution in DMSO; type: physicochemical; settings: 10 ng/mL in DMSO, closed glass container, normal temperature, 1 month; rate of change of absorbance and fluorescence intensity
Protocol: A 10 ng/mL solution of each of the staining compounds of Labelled Examples 1 to 78 and Labelled Comparative Examples 1 and 2 in DMSO was prepared, charged into a well-closed container made of glass, and left to stand still at normal temperature for 1 month. The absorbance and the fluorescence intensity at the time of the start of a storage stability test were measured at a given wavelength, and their rates of change were examined (+++: rates of change of the absorbance and the fluorescence intensity are less than 5%, and thus, the storage stability is highly excellent; ++: rates of change of the absorbance and fluorescence intensity are 5 to 15%, and thus, the storage stability is excellent; and −: rates of change of the absorbance and fluorescence intensity are more than 15%, and thus, the storage stability is poor).

Row | SMILES | Site(s) to be labelled [1] | Fluorescence sensitivity [1] | Staining property [1] | Excitation wavelength λex [2] | Fluorescence emission wavelength λem [2] | Stokes shift (λem − λex) [2] | Storage stability [3]
1 | COc1cc(/C=C2\C(=O)ON=C2c2ccccc2)cc2c1N(c1ccccc1)C1CCCC21 (centres unmarked) [Dye 34] | nose | +++ | +++ | 570 nm | 657 nm | 87 | +++ (rates of change of the absorbance and the fluorescence intensity are less than 5%, and thus, the storage stability is highly excellent)
2 | CC1(C)C(/C=C/c2ccc3c(c2)C2CCCC2N3c2ccc(C=C(c3ccccc3)c3ccccc3)cc2)=[N+](CCC(=O)O)c2ccccc21 (centres unmarked) [Dye 35] | nose | +++ | +++ | 611 nm | 720 nm | 109 | ++ (rates of change of the absorbance and fluorescence intensity are 5 to 15%, and thus, the storage stability is excellent)
3 | COc1ccc(N2c3ccc(/C=C4/SC(=S)N(CC(=O)O)C4=O)cc3C3CCCC32)cc1 (centres unmarked) [Dye 37] | gallbladder | +++ | +++ | 571 nm | 648 nm | 77 | ++ (rates of change of the absorbance and fluorescence intensity are 5 to 15%, and thus, the storage stability is excellent)
4 | CCN1C(=O)/C(=c2\s/c(=C/c3ccc4c(c3)C3CCCC3N4c3ccc(OC)cc3)c(=O)n2CC(=O)O)SC1=S (centres unmarked) [Dye 38] | gastrointestinal tract | +++ | +++ | 582 nm | 679 nm | 97 | +++ (rates of change of the absorbance and the fluorescence intensity are less than 5%, and thus, the storage stability is highly excellent)
5 | CCN1C(=O)/C(=c2\s/c(=C/c3ccc4c(c3)C3CCCC3N4Cc3ccccc3)c(=O)n2CC(=O)O)SC1=S (centres unmarked) [Dye 40] | blood vessel, liver, and gastrointestinal tract | +++ | +++ | 576 nm | 657 nm | 81 | +++ (rates of change of the absorbance and the fluorescence intensity are less than 5%, and thus, the storage stability is highly excellent)
6 | O=C(O)C1=NN(c2ccccc2)C(=O)/C1=C\c1cc(Br)c2c(c1)C1CCCC1N2c1ccc(Br)cc1 (centres unmarked) [Dye 42] | skin surface, liver, and gastrointestinal tract | +++ | +++ | 563 nm | 618 nm | 55 | ++ (rates of change of the absorbance and fluorescence intensity are 5 to 15%, and thus, the storage stability is excellent)
7 | COc1ccc2cc(N3c4ccc(/C=C5\C(=O)N(c6ccc(C(=O)O)cc6)N=C5C)cc4C4CCCC43)ccc2c1 (centres unmarked) [Dye 43] |  | +++ | +++ | 569 nm | 649 nm | 80 | +++ (rates of change of the absorbance and the fluorescence intensity are less than 5%, and thus, the storage stability is highly excellent)
8 | CC1=NN(c2ccc(C(=O)O)cc2)C(=O)/C1=C\c1ccc2c(c1)C1CCCC1N2Cc1ccccc1 (centres unmarked) [Dye 44] | liver and gastrointestinal tract | +++ | +++ | 510 nm | 558 nm | 48 | ++ (rates of change of the absorbance and fluorescence intensity are 5 to 15%, and thus, the storage stability is excellent)
9 | COc1ccc2cc(N3c4ccc(/C=C/c5sc6ccccc6[n+]5CC(=O)O)cc4C4CCCC43)ccc2c1 (centres unmarked) [Dye 45] | nose | +++ | +++ | 401 nm | 516 nm | 115 | +++ (rates of change of the absorbance and the fluorescence intensity are less than 5%, and thus, the storage stability is highly excellent)
10 | O=C(O)C1=NN(c2ccccc2)C(=O)/C1=C\c1ccc2c(c1)C1CCCC1N2c1ccc(Cc2ccccc2)cc1 (centres unmarked) [Dye 50] |  | +++ | +++ | 481 nm | 586 nm | 105 | ++ (rates of change of the absorbance and fluorescence intensity are 5 to 15%, and thus, the storage stability is excellent)
11 | O=C(O)C1=NN(c2ccccc2)C(=O)/C1=C\c1ccc2c(c1)C1CCCC1N2c1ccc(C=C(c2ccccc2)c2ccccc2)cc1 (centres unmarked) [Dye 51] | gallbladder and gastrointestinal tract | + | +++ | 582 nm | 670 nm | 88 | ++ (rates of change of the absorbance and fluorescence intensity are 5 to 15%, and thus, the storage stability is excellent)
12 | COc1ccc(N2c3ccc(/C=C4\C(=O)N(c5ccc(C(=O)O)cc5)N=C4C)cc3C3CCCC32)cc1 (centres unmarked) [Dye 54] | gastrointestinal tract and nose | ++ | +++ | 610 nm | 633 nm | 23 | +++ (rates of change of the absorbance and the fluorescence intensity are less than 5%, and thus, the storage stability is highly excellent)
13 | COc1ccc(N2c3ccc(/C=C(\C#N)C(=O)O)cc3C3CCCC32)cc1 (centres unmarked) [Dye 56] | liver, gallbladder, and gastrointestinal tract | +++ | +++ | 437 nm | 585 nm | 148 | +++ (rates of change of the absorbance and the fluorescence intensity are less than 5%, and thus, the storage stability is highly excellent)
14 | CCN1C(=O)/C(=c2\s/c(=C/c3cc(Br)c4c(c3)C3CCCC3N4c3ccc(Br)cc3)c(=O)n2CC(=O)O)SC1=S (centres unmarked) [Dye 59] | blood vessel, nose, and gastrointestinal tract | +++ | +++ | 559 nm | 671 nm | 112 | +++ (rates of change of the absorbance and the fluorescence intensity are less than 5%, and thus, the storage stability is highly excellent)
15 | CCCCN1C(=O)/C(=c2\s/c(=C/c3ccc4c(c3)C3CCCC3N4c3ccccc3)c(=O)n2CC(=O)OCC)SC1=S (centres unmarked) [Dye 60] | gastrointestinal tract | ++ | +++ | 563 nm | 609 nm | 46 | +++ (rates of change of the absorbance and the fluorescence intensity are less than 5%, and thus, the storage stability is highly excellent)
16 | CCCCN1C(=O)/C(=c2\s/c(=C/c3ccc4c(c3)C3CCCC3N4c3ccc(OC)cc3)c(=O)n2CC(=O)OCC)SC1=S (centres unmarked) [Dye 62] | gastrointestinal tract | +++ | +++ | 450 nm | 527 nm | 77 | +++ (rates of change of the absorbance and the fluorescence intensity are less than 5%, and thus, the storage stability is highly excellent)
